Experimental data as given in patent US9994551B2, “Pyridazine derivatives as RORc modulators” (Genentech, Inc., priority 2015, dated 2018).

Target: T1, RORc ligand binding domain (Homo sapiens, UniProt P51449)
T1 construct: host or cells: E. coli
T1 sequence (P51449 269-508 limits assumed): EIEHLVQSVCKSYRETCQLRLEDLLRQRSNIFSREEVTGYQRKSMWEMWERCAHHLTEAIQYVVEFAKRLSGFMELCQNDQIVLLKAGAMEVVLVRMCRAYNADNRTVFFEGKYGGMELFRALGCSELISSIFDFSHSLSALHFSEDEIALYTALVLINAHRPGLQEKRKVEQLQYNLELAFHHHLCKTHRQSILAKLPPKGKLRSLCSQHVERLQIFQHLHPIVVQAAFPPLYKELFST
Assay: In vitro RORc ligand binding assay (25-[3H]hydroxycholesterol displacement, filter binding)

SMILES | IC50 [µM]
CC[C@@H](O[C@@]12CC[C@@H](c3cc(-c4c(F)cccc4F)nnc31)C2(C)C)C(=O)NCC1(O)COC1 [Compound 57, (R)-2-(((5S,8R)-3-(2,6-difluorophenyl)-9,9-dimethyl-5,6,7,8-tetrahydro-5,8-methanocinnolin-8-yl)oxy)-N-((3-hydroxyoxetan-3-yl)methyl)butanamide] | 0.0445
CNC(=O)c1cnc(O[C@@]23CC[C@@H](c4cc(-c5c(F)cccc5F)nnc42)C3(C)C)cn1 [Compound 9, 5-(((5S,8R)-3-(2,6-difluorophenyl)-9,9-dimethyl-5,6,7,8-tetrahydro-5,8-methanocinnolin-8-yl)oxy)-N-methylpyrazine-2-carboxamide] | 0.325
CC[C@@H](O[C@@]12CC[C@@H](c3cc(-c4c(F)cccc4F)nnc31)C2(C)C)C(=O)N1CC(CO)C1 [Compound 38, (R)-2-(((5S,8R)-3-(2,6-difluorophenyl)-9,9-dimethyl-5,6,7,8-tetrahydro-5,8-methanocinnolin-8-yl)oxy)-1-(3-(hydroxymethyl)azetidin-1-yl)butan-1-one] | 0.144
CNC(=O)c1nccnc1O[C@@]12CC[C@@H](c3cc(-c4c(F)cccc4F)nnc31)C2(C)C [Compound 15, 3-(((5S,8R)-3-(2,6-difluorophenyl)-9,9-dimethyl-5,6,7,8-tetrahydro-5,8-methanocinnolin-8-yl)oxy)-N-methylpyrazine-2-carboxamide] | 0.0722
CC1(C)[C@H]2CC[C@]1([C@H]1CCCN(C(=O)NC3(CO)COC3)C1)c1nnc(-c3c(F)cccc3F)cc12 [Compound 171] | 0.0065
CCC[C@H](O[C@@]12CC[C@@H](c3cc(-c4c(F)cccc4F)nnc31)C2(C)C)C(N)=O [Compound 50, (S)-2-(((5S,8R)-3-(2,6-difluorophenyl)-9,9-dimethyl-5,6,7,8-tetrahydro-5,8-methanocinnolin-8-yl)oxy)pentanamide] | 0.2
CC[C@@H](O[C@@]12CC[C@@H](c3cc(-c4c(F)cccc4F)nnc31)C2(C)C)C(=O)NCCS(C)(=O)=O [Compound 102, (R)-2-(((5S,8R)-3-(2,6-difluorophenyl)-9,9-dimethyl-5,6,7,8-tetrahydro-5,8-methanocinnolin-8-yl)oxy)-N-(2-(methylsulfonyl)ethyl)butanamide] | 0.0615
CC1(C)[C@H]2CC[C@]1(c1nnc(C(N)=O)o1)c1nnc(-c3c(F)cccc3F)cc12 [Compound 2, 5-((5R,8R)-3-(2,6-difluorophenyl)-9,9-dimethyl-5,6,7,8-tetrahydro-5,8-methanocinnolin-8-yl)-1,3,4-oxadiazole-2-carboxamide] | 0.52
CC1(C)[C@H]2CC[C@]1([C@H]1CCCN(C(=O)NCC3(O)COC3)C1)c1nnc(-c3c(F)cccc3F)cc12 (stereo in doubt) [Compound 153, 3-[5-(2,6-difluorophenyl)-11,11-dimethyl-3,4-diazatricyclo[6.2.1.02,7]undeca-2,4,6-trien-1-yl]-N-[(3-hydroxyoxetan-3-yl)methyl]piperidine-1-carboxamide] | 0.11
CC1(C)[C@H]2CC[C@]1(Oc1cnccn1)c1nnc(-c3c(F)cccc3F)cc12 [Compound 11, (5S,8R)-3-(2,6-difluorophenyl)-9,9-dimethyl-8-(pyrazin-2-yloxy)-5,6,7,8-tetrahydro-5,8-methanocinnoline] | 0.0799
CC1(C)[C@H]2CC[C@]1([C@H]1CCCN(C(=O)NC3CCC3)C1)c1nnc(-c3c(F)cccc3F)cc12 [Compound 149, N-cyclobutyl-3-[5-(2,6-difluorophenyl)-11,11-dimethyl-3,4-diazatricyclo[6.2.1.02,7]undeca-2,4,6-trien-1-yl]piperidine-1-carboxamide] | 0.0082
Cc1nnc(CO[C@@]23CC[C@@H](c4cc(-c5c(F)cccc5F)nnc42)C3(C)C)o1 [Compound 8, 2-((((5S,8R)-3-(2,6-difluorophenyl)-9,9-dimethyl-5,6,7,8-tetrahydro-5,8-methanocinnolin-8-yl)oxy)methyl)-5-methyl-1,3,4-oxadiazole] | 0.14
CC1(C)[C@H]2CC[C@]1(Oc1nccnc1C(=O)NCCO)c1nnc(-c3c(F)cccc3F)cc12 [Compound 18, 3-(((5S,8R)-3-(2,6-difluorophenyl)-9,9-dimethyl-5,6,7,8-tetrahydro-5,8-methanocinnolin-8-yl)oxy)-N-(2-hydroxyethyl)pyrazine-2-carboxamide] | 0.34
CC[C@@H](O[C@@]12CC[C@@H](c3cc(-c4c(F)cccc4F)nnc31)C2(C)C)C(=O)N(C)CCOC [Compound 100, (R)-2-(((5S,8R)-3-(2,6-difluorophenyl)-9,9-dimethyl-5,6,7,8-tetrahydro-5,8-methanocinnolin-8-yl)oxy)-N-(2-methoxyethyl)-N-methylbutanamide] | 0.0464
CC[C@@H](O[C@@]12CC[C@@H](c3cc(-c4c(F)cccc4F)nnc31)C2(C)C)C(=O)Nc1nnc(C)o1 [Compound 55, (R)-2-(((5S,8R)-3-(2,6-difluorophenyl)-9,9-dimethyl-5,6,7,8-tetrahydro-5,8-methanocinnolin-8-yl)oxy)-N-(5-methyl-1,3,4-oxadiazol-2-yl)butanamide] | 0.0948

Results, then the molecule that gave them:

IC50 [µM] | SMILES
0.033 | CC1(C)[C@H]2CC[C@]1([C@H]1CCCN(C(=O)c3ccno3)C1)c1nnc(-c3c(F)cccc3F)cc12 (stereo in doubt) [Compound 166, [3-[5-(2,6-difluorophenyl)-11,11-dimethyl-3,4-diazatricyclo[6.2.1.02,7]undeca-2,4,6-trien-1-yl]-1-piperidyl]-isoxazol-5-yl-methanone]
0.0029 | CN1CCN(C(N)=O)C[C@H]1[C@@]12CC[C@@H](c3cc(-c4c(F)cccc4F)nnc31)C2(C)C [Compound 179, 3-[5-(2,6-difluorophenyl)-11,11-dimethyl-3,4-diazatricyclo[6.2.1.02,7]undeca-2,4,6-trien-1-yl]-4-methyl-piperazine-1-carboxamide]
0.0069 | COC(=O)N1CCC[C@H]([C@@]23CC[C@@H](c4cc(-c5c(F)cccc5F)nnc42)C3(C)C)C1 [Compound 99, (R)-methyl 3-((5R,8R)-3-(2,6-difluorophenyl)-9,9-dimethyl-5,6,7,8-tetrahydro-5,8-methanocinnolin-8-yl)piperidine-1-carboxylate]
0.005 | CCOC(=O)c1coc(N2CCO[C@@H]([C@@]34CC[C@@H](c5cc(-c6c(F)cccc6F)nnc53)C4(C)C)C2)n1 [Compound 127, ethyl 2-[2-[5-(2,6-difluorophenyl)-11,11-dimethyl-3,4-diazatricyclo[6.2.1.02,7]undeca-2,4,6-trien-1-yl]morpholin-4-yl]oxazole-4-carboxylate]
0.06 | CC1(C)[C@H]2CC[C@]1([C@@H]1CN(c3ncn[nH]3)CCO1)c1nnc(-c3c(F)cccc3F)cc12 [Compound 155, 2-[5-(2,6-difluorophenyl)-11,11-dimethyl-3,4-diazatricyclo[6.2.1.02,7]undeca-2,4,6-trien-1-yl]-4-(1H-1,2,4-triazol-5-yl)morpholine]
0.013 | CN1CCNC[C@H]1[C@@]12CC[C@@H](c3cc(-c4c(F)cccc4F)nnc31)C2(C)C [Compound 178, 5-(2,6-difluorophenyl)-11,11-dimethyl-1-(1-methylpiperazin-2-yl)-3,4-diazatricyclo[6.2.1.02,7]undeca-2,4,6-triene]
0.015 | CC(=O)N1CCN(C)[C@H]([C@@]23CC[C@@H](c4cc(-c5c(F)cccc5F)nnc42)C3(C)C)C1 [Compound 177, 1-[3-[5-(2,6-difluorophenyl)-11,11-dimethyl-3,4-diazatricyclo[6.2.1.02,7]undeca-2,4,6-trien-1-yl]-4-methyl-piperazin-1-yl]ethanone]
0.674 | CC1(C)[C@H]2CC[C@]1([C@H]1CN(CC(F)F)CCO1)c1nnc(-c3c(F)cccc3F)cc12 [Compound 80, (S)-4-(2,2-difluoroethyl)-2-((5R,8R)-3-(2,6-difluorophenyl)-9,9-dimethyl-5,6,7,8-tetrahydro-5,8-methanocinnolin-8-yl)morpholine]
0.0076 | CC1(C)[C@H]2CC[C@]1([C@@H]1CN(C3=NC(CO)CO3)CCO1)c1nnc(-c3c(F)cccc3F)cc12 (stereo in doubt) [Compound 140, [2-[2-[5-(2,6-difluorophenyl)-11,11-dimethyl-3,4-diazatricyclo[6.2.1.02,7]undeca-2,4,6-trien-1-yl]morpholin-4-yl]-4,5-dihydrooxazol-4-yl]methanol]
0.215 | CN1CCO[C@H]([C@@]23CC[C@@H](c4cc(-c5c(F)cccc5F)nnc42)C3(C)C)C1 [Compound 67, (R)-2-((5R,8R)-3-(2,6-difluorophenyl)-9,9-dimethyl-5,6,7,8-tetrahydro-5,8-methanocinnolin-8-yl)-4-methylmorpholine]
0.037 | CC1(C)[C@H]2CC[C@]1([C@H]1CN(c3nc(CO)co3)CCO1)c1nnc(-c3c(F)cccc3F)cc12 [Compound 128, [2-[2-[5-(2,6-difluorophenyl)-11,11-dimethyl-3,4-diazatricyclo[6.2.1.02,7]undeca-2,4,6-trien-1-yl]morpholin-4-yl]oxazol-4-yl]methanol]
0.119 | CC(=O)N1CCO[C@@H]([C@@]23CC[C@@H](c4cc(-c5c(F)cccc5F)nnc42)C3(C)C)C1 [Compound 72, 1-((S)-2-((5R,8R)-3-(2,6-difluorophenyl)-9,9-dimethyl-5,6,7,8-tetrahydro-5,8-methanocinnolin-8-yl)morpholino)ethanone]
0.011 | CC1(C)[C@H]2CC[C@]1([C@@H]1CN(C(=O)c3c[nH]c(=O)cn3)CCO1)c1nnc(-c3c(F)cccc3F)cc12 [Compound 118, 5-[2-[5-(2,6-difluorophenyl)-11,11-dimethyl-3,4-diazatricyclo[6.2.1.02,7]undeca-2,4,6-trien-1-yl]morpholine-4-carbonyl]-1H-pyrazin-2-one]
